In ChEMBL document CHEMBL1275492, “In vitro activity of ceftobiprole against pathogens from two phase 3 clinical trials of complicated skin and skin structure infections” (2008):
In brackets after ≈: the same amount, converted by molar mass.

Columns and labels:
Format in all cases: functional
[1] = test system: Serratia marcescens; test: Antibacterial activity against Serratia marcescens obtained from complicated skin and skin structure infections by agar dilution method
[2] = test system: Pseudomonas aeruginosa; test: Antibacterial activity against Pseudomonas aeruginosa obtained from complicated skin and skin structure infections by agar dilution method
[3] = test system: Proteus penneri; test: Antibacterial activity against Proteus penneri obtained from complicated skin and skin structure infections by agar dilution method
[4] = test system: Staphylococcus intermedius; test: Antibacterial activity against Staphylococcus intermedius obtained from complicated skin and skin structure infections by agar dilution method
[5] = test system: Salmonella; test: Antibacterial activity against Salmonella spp. obtained from complicated skin and skin structure infections by agar dilution method
[6] = test system: Stenotrophomonas maltophilia; test: Antibacterial activity against Stenotrophomonas maltophilia obtained from complicated skin and skin structure infections by agar dilution method
[7] = test system: Lactococcus lactis; test: Antibacterial activity against Lactococcus lactis obtained from complicated skin and skin structure infections by agar dilution method
[8] = test system: Enterococcus faecalis; test: Antibacterial activity against Enterococcus faecalis obtained from complicated skin and skin structure infections by agar dilution method
[9] = test system: Proteus mirabilis; test: Antibacterial activity against Proteus mirabilis obtained from complicated skin and skin structure infections by agar dilution method
[10] = test system: Acinetobacter baumannii; test: Antibacterial activity against Acinetobacter baumannii obtained from complicated skin and skin structure infections by agar dilution method
[11] = test system: Pseudomonas fluorescens; test: Antibacterial activity against Pseudomonas fluorescens obtained from complicated skin and skin structure infections by agar dilution method
[12] = test system: Klebsiella pneumoniae; test: Antibacterial activity against Klebsiella pneumoniae obtained from complicated skin and skin structure infections by agar dilution method
[13] = test system: Klebsiella oxytoca; test: Antibacterial activity against Klebsiella oxytoca obtained from complicated skin and skin structure infections by agar dilution method
[14] = test system: Escherichia coli; test: Antibacterial activity against Escherichia coli obtained from complicated skin and skin structure infections by agar dilution method
[15] = Antibacterial activity against Streptococcus sp. 'group G' obtained from complicated skin and skin structure infections by agar dilution method
[16] = test system: Enterobacter cloacae; test: Antibacterial activity against Enterobacter cloacae obtained from complicated skin and skin structure infections by agar dilution method
[17] = test system: Micrococcus; test: Antibacterial activity against Micrococcus spp. obtained from complicated skin and skin structure infections by agar dilution method
[18] = test system: Gemella; test: Antibacterial activity against Gemella spp. obtained from complicated skin and skin structure infections by agar dilution method
[19] = test system: Providencia stuartii; test: Antibacterial activity against Providencia stuartii obtained from complicated skin and skin structure infections by agar dilution method
[20] = Antibacterial activity against Streptococcus sp. 'group C' obtained from complicated skin and skin structure infections by agar dilution method
[21] = test system: Enterobacter amnigenus; test: Antibacterial activity against Enterobacter amnigenus obtained from complicated skin and skin structure infections by agar dilution method; settings: Lelliottia amnigena
[22] = test system: Streptococcus constellatus; test: Antibacterial activity against Streptococcus constellatus obtained from complicated skin and skin structure infections by agar dilution method
[23] = test system: Aerococcus viridans; test: Antibacterial activity against Aerococcus viridans obtained from complicated skin and skin structure infections by agar dilution method
[24] = test system: Morganella morganii; test: Antibacterial activity against Morganella morganii obtained from complicated skin and skin structure infections by agar dilution method
[25] = test system: Citrobacter freundii; test: Antibacterial activity against Citrobacter freundii obtained from complicated skin and skin structure infections by agar dilution method
[26] = test system: Gemella morbillorum; test: Antibacterial activity against Gemella morbillorum obtained from complicated skin and skin structure infections […]
[27] = test system: Proteus vulgaris; test: Antibacterial activity against Proteus vulgaris obtained from complicated skin and skin structure infections by agar dilution method
[28] = test system: Streptococcus mitis; test: Antibacterial activity against Streptococcus mitis obtained from complicated skin and skin structure infections by agar dilution method
[29] = test system: Citrobacter braakii; test: Antibacterial activity against Citrobacter braakii obtained from complicated skin and skin structure infections by agar dilution method
[30] = test system: Streptococcus agalactiae; test: Antibacterial activity against Streptococcus agalactiae obtained from complicated skin and skin structure infections by agar dilution method
[31] = test system: Klebsiella aerogenes; test: Antibacterial activity against Enterobacter aerogenes obtained from complicated skin and skin structure infections by agar dilution method
[32] = test system: Streptococcus pyogenes; test: Antibacterial activity against Streptococcus pyogenes obtained from complicated skin and skin structure infections by agar dilution method
[33] = test system: Bacillus; test: Antibacterial activity against Bacillus spp. obtained from complicated skin and skin structure infections by agar dilution method

CC(C)(O/N=C(\C(=O)N[C@@H]1C(=O)N2C(C(=O)[O-])=C(C[n+]3ccccc3)CS[C@H]12)c1csc(N)n1)C(=O)O [CEFTAZIDIME]
MIC50 [1]: 0.12 µg/mL (≈ 0.22 µM) | MIC90 [1]: 16 µg/mL (≈ 29.3 µM) | MIC50 [2]: 2 µg/mL (≈ 3.66 µM) | MIC90 [2]: > 128 µg/mL | MIC50 [3]: 0.12 µg/mL (≈ 0.22 µM) | MIC90 [3]: 16 µg/mL (≈ 29.3 µM) | MIC50 [4]: 0.12 µg/mL (≈ 0.22 µM) | MIC90 [4]: 0.25 µg/mL (≈ 0.457 µM) | MIC50 [5]: 0.12 µg/mL (≈ 0.22 µM) | MIC90 [5]: 16 µg/mL (≈ 29.3 µM) | MIC50 [6]: > 16 µg/mL | MIC90 [6]: > 128 µg/mL | MIC50 [7]: 1 µg/mL (≈ 1.83 µM) | MIC90 [7]: 64 µg/mL (≈ 117 µM) | MIC50 [8]: > 128 µg/mL | MIC90 [8]: > 128 µg/mL | MIC50 [9]: 0.06 µg/mL (≈ 0.11 µM) | MIC90 [9]: 2 µg/mL (≈ 3.66 µM) | MIC50 [10]: > 16 µg/mL | MIC90 [10]: > 128 µg/mL | MIC50 [11]: > 16 µg/mL | MIC90 [11]: > 128 µg/mL | MIC50 [12]: 0.12 µg/mL (≈ 0.22 µM) | MIC90 [12]: 64 µg/mL (≈ 117 µM) | MIC50 [13]: 0.12 µg/mL (≈ 0.22 µM) | MIC90 [13]: 16 µg/mL (≈ 29.3 µM) | MIC50 [14]: 0.12 µg/mL (≈ 0.22 µM) | MIC90 [14]: 0.25 µg/mL (≈ 0.457 µM) | MIC50 [15]: 0.25 µg/mL (≈ 0.457 µM) | MIC90 [15]: 0.25 µg/mL (≈ 0.457 µM) | MIC50 [16]: 0.25 µg/mL (≈ 0.457 µM) | MIC90 [16]: 64 µg/mL (≈ 117 µM) | MIC50 [17]: 1 µg/mL (≈ 1.83 µM) | MIC90 [17]: 64 µg/mL (≈ 117 µM) | MIC50 [18]: 1 µg/mL (≈ 1.83 µM) | MIC90 [18]: 64 µg/mL (≈ 117 µM) | MIC50 [19]: 0.12 µg/mL (≈ 0.22 µM) | MIC90 [19]: 16 µg/mL (≈ 29.3 µM) | MIC50 [20]: 0.5 µg/mL (≈ 0.915 µM) | MIC90 [20]: 4 µg/mL (≈ 7.32 µM) | MIC50 [21]: 0.12 µg/mL (≈ 0.22 µM) | MIC90 [21]: 16 µg/mL (≈ 29.3 µM) | MIC50 [22]: 2 µg/mL (≈ 3.66 µM) | MIC90 [22]: 4 µg/mL (≈ 7.32 µM) | MIC50 [23]: 1 µg/mL (≈ 1.83 µM) | MIC90 [23]: 64 µg/mL (≈ 117 µM) | MIC50 [24]: ≤ 0.12 µg/mL | MIC90 [24]: 8 µg/mL (≈ 14.6 µM) | MIC50 [25]: 0.12 µg/mL (≈ 0.22 µM) | MIC90 [25]: 16 µg/mL (≈ 29.3 µM) | MIC50 [26]: 1 µg/mL (≈ 1.83 µM) | MIC90 [26]: 64 µg/mL (≈ 117 µM) | MIC50 [27]: 0.12 µg/mL (≈ 0.22 µM) | MIC90 [27]: 16 µg/mL (≈ 29.3 µM) | MIC50 [28]: 0.12 µg/mL (≈ 0.22 µM) | MIC90 [28]: 0.25 µg/mL (≈ 0.457 µM) | MIC50 [29]: 0.12 µg/mL (≈ 0.22 µM) | MIC90 [29]: 16 µg/mL (≈ 29.3 µM) | MIC50 [30]: 0.5 µg/mL (≈ 0.915 µM) | MIC90 [30]: 1 µg/mL (≈ 1.83 µM) | MIC50 [31]: 0.12 µg/mL (≈ 0.22 µM) | MIC90 [31]: 16 µg/mL (≈ 29.3 µM) | MIC50 [32]: 0.12 µg/mL (≈ 0.22 µM) | MIC90 [32]: 0.12 µg/mL (≈ 0.22 µM) | MIC50 [33]: 1 µg/mL (≈ 1.83 µM) | MIC90 [33]: 64 µg/mL (≈ 117 µM)

CO/N=C(\C(=O)N[C@@H]1C(=O)N2C(C(=O)O)=C(CSc3nc(=O)c(O)nn3C)CS[C@H]12)c1csc(N)n1 [CEFTRIAXONE]
MIC50 [1]: 0.06 µg/mL (≈ 0.108 µM) | MIC90 [1]: 64 µg/mL (≈ 115 µM) | MIC50 [2]: 64 µg/mL (≈ 115 µM) | MIC90 [2]: > 128 µg/mL | MIC50 [3]: 0.06 µg/mL (≈ 0.108 µM) | MIC90 [3]: 64 µg/mL (≈ 115 µM) | MIC50 [5]: 0.06 µg/mL (≈ 0.108 µM) | MIC90 [5]: 64 µg/mL (≈ 115 µM) | MIC50 [6]: > 32 µg/mL | MIC90 [6]: > 128 µg/mL | MIC50 [9]: ≤ 0.015 µg/mL | MIC90 [9]: 4 µg/mL (≈ 7.21 µM) | MIC50 [10]: > 32 µg/mL | MIC90 [10]: > 128 µg/mL | MIC50 [11]: > 32 µg/mL | MIC90 [11]: > 128 µg/mL | MIC50 [12]: 0.12 µg/mL (≈ 0.216 µM) | MIC90 [12]: 64 µg/mL (≈ 115 µM) | MIC50 [13]: 0.06 µg/mL (≈ 0.108 µM) | MIC90 [13]: 64 µg/mL (≈ 115 µM) | MIC50 [14]: 0.06 µg/mL (≈ 0.108 µM) | MIC90 [14]: 0.25 µg/mL (≈ 0.451 µM) | MIC50 [16]: ≤ 0.25 µg/mL | MIC90 [16]: 64 µg/mL (≈ 115 µM) | MIC50 [19]: 0.06 µg/mL (≈ 0.108 µM) | MIC90 [19]: 64 µg/mL (≈ 115 µM) | MIC50 [21]: 0.06 µg/mL (≈ 0.108 µM) | MIC90 [21]: 64 µg/mL (≈ 115 µM) | MIC50 [24]: 0.03 µg/mL (≈ 0.0541 µM) | MIC90 [24]: > 128 µg/mL | MIC50 [25]: 0.06 µg/mL (≈ 0.108 µM) | MIC90 [25]: 64 µg/mL (≈ 115 µM) | MIC50 [27]: 0.06 µg/mL (≈ 0.108 µM) | MIC90 [27]: 64 µg/mL (≈ 115 µM) | MIC50 [29]: 0.06 µg/mL (≈ 0.108 µM) | MIC90 [29]: 64 µg/mL (≈ 115 µM) | MIC50 [31]: 0.06 µg/mL (≈ 0.108 µM) | MIC90 [31]: 64 µg/mL (≈ 115 µM)
